Laboratory results taken from patent US9750748B2, “Pyridazinones as DAAO enzyme inhibitors” (TAKEDA PHARMACEUTICAL COMPANY LIMITED, priority 2012, dated 2017).

Molecular target: Human DAAO enzyme (Homo sapiens (Human), UniProt P14920)
Experiment: In Vitro DAAO Enzyme Assay (Amplex Red detection of H2O2 from D-Serine)
Type: biochemical
Settings: inhibition of DAAO activity in the presence of 10 mM D-Serine; 60 minutes at 25° C.
Experimental: In Vitro DAAO Enzyme Assay
The functional activity of compounds inhibiting the DAAO enzyme was determined by utilizing the co-product of the catalysis of D-Serine, H2O2, which can be quantitatively measured using the ‘Amplex’ (trade mark) Red (Invitrogen) detection. ‘Amplex’ Red reagent is a colorless substrate that reacts with hydrogen peroxide (H2O2) with a 1:1 stoichiometry to produce highly fluorescent resorufin (excitation/emission maxima=570/585 nm).
The Km of D-Serine was measured for each enzyme batch to maintain consistency; this Km was used in subsequent assays.
On the day of the assay compounds were serially diluted in DMSO before being diluted 1:20 with assay buffer (20 mM Tris ph 7.4). […] Finally 5 μl ‘Amplex’ red reagent (Invitrogen) was added to all wells as per manufacturer's protocol. The plate was incubated for 60 minutes in the dark at 25° C. and the fluorescence in each well was measured in the Envision plate reader.
Concentration response curves were generated using the average of duplicate wells for each data point and analyzed using non-linear regression and four parameter curve fit.

Sequence of Human DAAO enzyme (P14920 whole entry): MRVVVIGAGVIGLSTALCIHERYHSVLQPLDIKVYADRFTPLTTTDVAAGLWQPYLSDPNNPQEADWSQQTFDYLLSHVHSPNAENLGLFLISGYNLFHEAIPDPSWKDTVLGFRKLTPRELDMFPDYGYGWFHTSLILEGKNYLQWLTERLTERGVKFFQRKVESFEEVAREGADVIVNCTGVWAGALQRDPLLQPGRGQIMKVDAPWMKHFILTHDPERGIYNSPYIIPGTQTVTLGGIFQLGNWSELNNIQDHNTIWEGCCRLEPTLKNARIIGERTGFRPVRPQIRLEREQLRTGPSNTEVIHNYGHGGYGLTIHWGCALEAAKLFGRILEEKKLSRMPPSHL

SMILES	IC50 [nM]
CC(C)Cc1cc(O)c(=O)[nH]n1 [Example 5, 4-Hydroxy-6-(2-methylpropyl)pyridazin-3(2H)-one]	140
CCCN(C)c1cc(O)c(=O)[nH]n1 [Example 11, 4-Hydroxy-6-(methyl(propyl)amino)pyridazin-3(2H)-one]	180
O=c1[nH]nc(N2CCCCC2)cc1O [Example 13, 4-Hydroxy-6-(piperidin-1-yl)pyridazin-3(2H)-one]	3600
O=c1[nH]nc(C2CCOCC2)cc1O [Example 4, 4-Hydroxy-6-(tetrahydro-2H-pyran-4-yl)pyridazin-3(2H)-one]	4100
CN(C)c1cc(O)c(=O)[nH]n1 [Example 10, 6-(Dimethylamino)-4-hydroxypyridazin-3(2H)-one]	46
O=c1[nH]nc(C2CCCCC2)cc1O [Example 7, 6-Cyclohexyl-4-hydroxypyridazin-3(2H)-one]	1100
CCN(C)c1cc(O)c(=O)[nH]n1 [Example 12, 6-(Ethyl(methyl)amino)-4-hydroxypyridazin-3(2H)-one]	150
O=c1[nH]nc(C2CCCC2)cc1O [Example 6, 6-Cyclopentyl-4-hydroxypyridazin-3(2H)-one]	670
O=c1[nH]nc(C2CC2)cc1O [Example 3, 6-Cyclopropyl-4-hydroxypyridazin-3(2H)-one]	40
O=c1[nH]nc(N2CCC2)cc1O [Example 9, 6-(Azetidin-1-yl)-4-hydroxypyridazin-3(2H)-one]	2500
CC(C)(C)c1cc(O)c(=O)[nH]n1 [Example 14, 6-tert-Butyl-4-hydroxypyridazin-3(2H)-one]	44
CC(C)c1cc(O)c(=O)[nH]n1 [Example 8, 4-Hydroxy-6-isopropylpyridazin-3(2H)-one]	36
CC(C)CCc1cc(O)c(=O)[nH]n1 [Example 2, 4-Hydroxy-6-(3-methylbutyl)pyridazin-3(2H)-one]	61
CCc1cc(O)c(=O)[nH]n1 [Example 1, 6-Ethyl-4-hydroxypyridazin-3(2H)-one]	11
